Reference: ChEMBL document CHEMBL5385933, “Preparation and Preliminary Structure-Activity Relationship Studies of Schwarzinicine A Analogs as Vasorelaxant Agents” (J Nat Prod, 2024)

How the values were obtained:
[1] = tested on: Aorta; test: Vasorelaxant activity in Sprague-Dawley rat aortic rings assessed as reduction in phenylephrine-induced contractions by organ bath assay; format: functional, tissue-based
[2] = tested on: Aorta; test: Vasorelaxant activity in Sprague-Dawley rat aortic rings assessed as reduction in phenylephrine-induced contractions by measuring maximum efficacy by organ bath assay relative to control; format: functional

CCCC(Cc1ccccc1)NCCCCc1ccccc1 (centres undefined)
EC50 [1]: 2740 nM | Emax [2]: 127%

c1ccc(CCNC2CCc3ccccc3C2)cc1 (centres undefined)
EC50 [1]: 500 nM | Emax [2]: 119%

c1ccc(CCNC2Cc3ccccc3C2)cc1
EC50 [1]: 200 nM | Emax [2]: 113%

CCCC(Cc1ccccc1)NCCN1CCOCC1 (centres undefined)
EC50 [1]: 2740 nM | Emax [2]: 89.8%

COc1ccc(CCNC(C)Cc2ccc(OC)c(OC)c2)cc1OC (centres undefined)
EC50 [1]: 2890 nM | Emax [2]: 104%

COc1ccc(CCNC(Cc2ccccc2)Cc2ccccc2)cc1OC
EC50 [1]: 1860 nM | Emax [2]: 115%

c1ccc(CCNC(CCc2ccccc2)Cc2ccccc2)cc1 (centres undefined)
EC50 [1]: 2300 nM | Emax [2]: 116%

CCCC(Cc1csc2ccccc12)NCCc1ccccc1 (centres undefined)
EC50 [1]: 370 nM | Emax [2]: 112%

CCCC(CCCCc1ccccc1)NCCc1ccccc1 (centres undefined)
EC50 [1]: 2020 nM | Emax [2]: 121%

CCC(CCc1ccco1)NCCN1CCCCC1 (centres undefined)
EC50 [1]: 420 nM | Emax [2]: 97.8%

CCCC(Cc1ccccc1)NC1Cc2ccccc2C1 (centres undefined)
EC50 [1]: 350 nM | Emax [2]: 114%

CCCC(Cc1ccccc1)NC1CCCC1 (centres undefined)
EC50 [1]: 3090 nM | Emax [2]: 116%

CCCC(Cc1ccccc1)NCCc1c[nH]cn1 (centres undefined)
EC50 [1]: 1370 nM | Emax [2]: 122%

CCCC(Cc1ccccc1)NC1CC2CCC1C2 (centres undefined)
EC50 [1]: 480 nM | Emax [2]: 106%

CCCC(Cc1ccc(Cl)cc1)NCCc1ccccc1 (centres undefined)
EC50 [1]: 1950 nM | Emax [2]: 114%

CCCC(CC1CCCCC1)NCCc1ccccc1 (centres undefined)
EC50 [1]: 1840 nM | Emax [2]: 114%

CCCC(Cc1ccccc1)NCCc1ccccc1 (centres undefined)
EC50 [1]: 3060 nM | Emax [2]: 113%

CCCC(Cc1ccc(C)cc1)NCCc1ccccc1 (centres undefined)
EC50 [1]: 2640 nM | Emax [2]: 120%

Fc1ccc(CCNC(CCc2ccccc2)Cc2ccc(Cl)cc2)cc1 (centres undefined)
EC50 [1]: 650 nM | Emax [2]: 92.2%

CCCC(Cc1cccs1)NCCc1ccccc1 (centres undefined)
EC50 [1]: 410 nM | Emax [2]: 110%

CCC(CCCCc1ccccc1)NCCc1ccccc1 (centres undefined)
EC50 [1]: 3360 nM | Emax [2]: 125%

CCC(CCc1ccccc1)NCCc1ccccc1 (centres undefined)
EC50 [1]: 1240 nM | Emax [2]: 11.5%

CCCC(CC1CC1)NCCc1ccccc1 (centres undefined)
EC50 [1]: 1510 nM | Emax [2]: 116%

CCCC(Cc1ccccc1)NCCN1CCCCC1 (centres undefined)
EC50 [1]: 130 nM | Emax [2]: 110%

CCCC(Cc1ccccc1)NCCC1=CCCCC1 (centres undefined)
EC50 [1]: 2410 nM | Emax [2]: 117%

CN(CCc1ccccc1)C(CCc1ccccc1)Cc1ccccc1 (centres undefined)
EC50 [1]: 40 nM | Emax [2]: 93.5%

CCCC(CC1CCCCC1)NCCN1CCCCC1 (centres undefined)
EC50 [1]: 220 nM | Emax [2]: 88.4%

CCN(CCc1ccccc1)C(CCc1ccccc1)Cc1ccccc1 (centres undefined)
EC50 [1]: 1210 nM | Emax [2]: 85%

CCCC(Cc1ccccc1)NCCC#N (centres undefined)
EC50 [1]: 1430 nM | Emax [2]: 89.5%

CCCC(Cc1ccccc1)NC1CC1 (centres undefined)
EC50 [1]: 2250 nM | Emax [2]: 114%

CCCC(Cc1ccccc1)NCCc1ccc([N+](=O)[O-])cc1 (centres undefined)
EC50 [1]: 1730 nM | Emax [2]: 119%

CCC(CCc1ccco1)NCCc1ccccc1 (centres undefined)
EC50 [1]: 180 nM | Emax [2]: 122%

C[N+](C)(CCc1ccccc1)C(CCc1ccccc1)Cc1ccccc1 (centres undefined)
EC50 [1]: 1970 nM | Emax [2]: 136%

c1ccc2c(c1)CCC(NC1Cc3ccccc3C1)C2 (centres undefined)
EC50 [1]: 1320 nM | Emax [2]: 122%

CCC(CCc1cccs1)NCCc1ccccc1 (centres undefined)
EC50 [1]: 190 nM | Emax [2]: 120%

c1ccc(CCC(Cc2ccccc2)N(CCc2ccccc2)CCc2ccccc2)cc1 (centres undefined)
EC50 [1]: 1390 nM | Emax [2]: 68.9%

CCCC(CC1CCCCC1)NCCC1CCCCC1 (centres undefined)
EC50 [1]: 320 nM | Emax [2]: 83.6%

CCCCCCCC(CCC)NCCc1ccccc1 (centres undefined)
EC50 [1]: 1050 nM | Emax [2]: 89.7%

CCCC(Cc1ccccc1)NCCc1ccc(F)cc1 (centres undefined)
EC50 [1]: 3830 nM | Emax [2]: 120%

CCCC(Cc1ccccc1)NCCN1CCNCC1 (centres undefined)
EC50 [1]: 1040 nM | Emax [2]: 107%

CCCC(Cc1ccc2c(c1)OCO2)NCCc1ccccc1 (centres undefined)
EC50 [1]: 1060 nM | Emax [2]: 113%

CCC(CCc1ccco1)NCCC1CCCCC1 (centres undefined)
EC50 [1]: 2120 nM | Emax [2]: 106%

CCCNC(CCc1ccccc1)Cc1ccccc1 (centres undefined)
EC50 [1]: 3830 nM | Emax [2]: 121%

CCCC(Cc1ccc(C)cc1)NCCc1ccc(F)cc1 (centres undefined)
EC50 [1]: 1230 nM | Emax [2]: 118%

CCCC(Cc1ccc(Cl)cc1)NCCc1ccc(F)cc1 (centres undefined)
EC50 [1]: 1090 nM | Emax [2]: 99.1%

CCCC(Cc1ccc2ccccc2c1)NCCc1ccccc1 (centres undefined)
EC50 [1]: 1600 nM | Emax [2]: 115%

CCCC(Cc1ccccc1)NCCc1c[nH]c2ccccc12 (centres undefined)
EC50 [1]: 440 nM | Emax [2]: 114%

CCC(Cc1ccccc1)NCCc1ccccc1 (centres undefined)
EC50 [1]: 1120 nM | Emax [2]: 120%

CCCC(Cc1ccccc1)NCCc1ccccn1 (centres undefined)
EC50 [1]: 1130 nM | Emax [2]: 114%

CCC(CCc1ccc(C#N)cc1)NCCc1ccccc1 (centres undefined)
EC50 [1]: 1960 nM | Emax [2]: 125%

CCCC(Cc1ccccc1)NCCc1ccc(OC)cc1 (centres undefined)
EC50 [1]: 1280 nM | Emax [2]: 114%

c1ccc(CCC(Cc2ccccc2)N(CCc2ccccc2)CC2CC2)cc1 (centres undefined)
EC50 [1]: 140 nM | Emax [2]: 75.4%

CCCC(CC1CCCCC1)NCCC1=CCCCC1 (centres undefined)
EC50 [1]: 1000 nM | Emax [2]: 84.7%

COc1ccc(CCC(Cc2ccc(OC)c(OC)c2)NCCc2ccc(OC)c(OC)c2)cc1 (centres undefined)
EC50 [1]: 2990 nM | Emax [2]: 122%

CC(=O)N(CCc1ccccc1)C(CCc1ccccc1)Cc1ccccc1 (centres undefined)
EC50 [1]: 20300 nM | Emax [2]: 82.9%

CCCC(Cc1ccccc1)NCCc1ccc(O)cc1 (centres undefined)
EC50 [1]: 49 nM | Emax [2]: 111%

CCCC(Cc1ccccc1)NCCc1cccs1 (centres undefined)
EC50 [1]: 3500 nM | Emax [2]: 134%
